Experiments:
Assay type in all cases: cell-based
wildtype LRRK2 = target: T1, wildtype LRRK2 (Homo sapiens, UniProt Q5S007); assay: LRRK2 degradation assay, wildtype LRRK2-HiBit expressed from plasmid in HEK293 cells; settings: HEK293 cells transfected with HiBit-tagged wildtype LRRK2, 24 hours compound incubation; for Dmax: read-out: **WT Dmax (%); for DC50: read-out: *WT DC50
T1 construct: expressed in transfected cells; host or cells: HEK293 (ATCC CRL-1573), transient transfection, ubiquitin promoter
Summary of the method: (§1)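 DC50 and Dmax derived from per-plate curve fits of LRRK2-HiBit signal over firefly luciferase (cell number/viability), as % of DMSO median, from 6 replicates across two days. Compound exposure was 24 hours at 37° C. in HEK293 cells transfected with wild-type or G2019S LRRK2 bearing a C-terminal HiBit tag.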

G2019S LRRK2 = target: T2, G2019S LRRK2 (Homo sapiens, UniProt Q5S007, G2019S); assay: LRRK2 degradation assay, G2019S LRRK2-HiBit expressed from plasmid in HEK293 cells; settings: HEK293 cells transfected with HiBit-tagged G2019S LRRK2, 24 hours compound incubation
T2 construct: expressed in transfected cells; host or cells: HEK293 (ATCC CRL-1573), transient transfection, ubiquitin promoter
Summary of the method: as §1

[1] = target: T3, LRRK2 (endogenous gene tagged with a HiBit sequence) (Homo sapiens, UniProt Q5S007); assay: LRRK2 degradation assay, endogenous LRRK2 gene tagged with HiBit in HEK293 cells; settings: 24 hours compound incubation; for Dmax: read-out: **Endogenous WT Dmax (%); for DC50: read-out: *Endogenous WT DC50
T3 construct: endogenous in cells; host or cells: HEK293 with a HiBit knock-in at the endogenous LRRK2 locus, stably expressing firefly luciferase
Experimental: The assay measures the degradation of LRRK2 in cells where the C-terminus (3′) of the endogenous gene has been tagged with a HiBit sequence in HEK293 cells. The cells also express firefly lucisferase, expressed from a Cytomegalovirus promoter and introduced into the HiBit tagged cells and stably expressed. The Nano-Glo® Dual Luciferase Reporter Assay System (Promega™, Madison, WI) was utilized.
Day 1—Preparation of Compound and Assay Plates. Two sets of plates were prepared: a triplicate set for the HiBit assay in white 384-well plates and a triplicate set of plate in black 384-well plates for the Alamar Blue cell viability assay. Briefly, the growth media (DMEM+Glutamax-10% fetal bovine serum-1% Penicillin-Streptomicin) from two T128 flasks was aspirated from the flasks. Cells were washed with Dulbecco's Phosphate Buffered Saline (dPBS) and aspirated. Trypsin (3 mL per flask) was added and the flasks were incubated for 2-3 minutes.
Ten mL of OptiMEM-10% fetal bovine-1% penicillin-streptomycin (hereinafter, “OptiMEM media”) was added to the flask and the cells and transferred to a 50 mL conical tube. A cell count (25 ul of cell into Effendorf vial+25 ul of Trypan Blue Stain) was performed and the cell density adjusted to 15,000 cell/45 μl/well (3.33×10^5/mL) in OptiMEM media.
Forty-five microliters of the cell suspension (15,000 cells) was aliquoted to each well of the white 384-well plate. The plates incubated at room temperature for 10 minutes before being placed in the 37° C.+5% CO2 incubator overnight
Day 2—Compound Treatment. Exemplary compounds were prepared at a 1 mM starting concentration and 1:3 serial dilution for 11 points CRC prepared and stored in the freezer. The Master Compound Plate was thawed overnight at room temperature. DMSO (20 μL) was added into column 24 of the Master Compound Plate for negative control and 20 μL of 300 μM of Exemplary Compound 4 in column 23 as positive control.
Intermediate Compound Plate with 4% DMSO in OptiMEM Media. DMSO was added to warm OptiMEM media to achieve a 4% DMSO solution (approximately 50 mL/plate). One-hundred microliters of the OptiMEM-4% DMSO was aliquoted to each well of 384-Well Deep Well Microplates.
The Master Compound Plate and the Intermediate Compound Plate were spun down.
One microliter of compound from the Master Compound Plate was transferred into the Intermediate plate (a 1:100 dilution). […]
Day 3—HiBit Assay. […] Fluorescence of each plate was read on a plated reader for the Alamar Blue viability assay. […]
The One Glo luciferase mixture was prepared. […] The luminescence of each plate was read on a plate reader.
1:100 DLR substrate and 1:100 LgBiT Protein dilution were added to the Promega Stop and Glo buffer and mixed just before addition to assay plates. […] The luminescence of each plate was read on a plate reader. […]

T3 sequence (Q5S007 whole entry): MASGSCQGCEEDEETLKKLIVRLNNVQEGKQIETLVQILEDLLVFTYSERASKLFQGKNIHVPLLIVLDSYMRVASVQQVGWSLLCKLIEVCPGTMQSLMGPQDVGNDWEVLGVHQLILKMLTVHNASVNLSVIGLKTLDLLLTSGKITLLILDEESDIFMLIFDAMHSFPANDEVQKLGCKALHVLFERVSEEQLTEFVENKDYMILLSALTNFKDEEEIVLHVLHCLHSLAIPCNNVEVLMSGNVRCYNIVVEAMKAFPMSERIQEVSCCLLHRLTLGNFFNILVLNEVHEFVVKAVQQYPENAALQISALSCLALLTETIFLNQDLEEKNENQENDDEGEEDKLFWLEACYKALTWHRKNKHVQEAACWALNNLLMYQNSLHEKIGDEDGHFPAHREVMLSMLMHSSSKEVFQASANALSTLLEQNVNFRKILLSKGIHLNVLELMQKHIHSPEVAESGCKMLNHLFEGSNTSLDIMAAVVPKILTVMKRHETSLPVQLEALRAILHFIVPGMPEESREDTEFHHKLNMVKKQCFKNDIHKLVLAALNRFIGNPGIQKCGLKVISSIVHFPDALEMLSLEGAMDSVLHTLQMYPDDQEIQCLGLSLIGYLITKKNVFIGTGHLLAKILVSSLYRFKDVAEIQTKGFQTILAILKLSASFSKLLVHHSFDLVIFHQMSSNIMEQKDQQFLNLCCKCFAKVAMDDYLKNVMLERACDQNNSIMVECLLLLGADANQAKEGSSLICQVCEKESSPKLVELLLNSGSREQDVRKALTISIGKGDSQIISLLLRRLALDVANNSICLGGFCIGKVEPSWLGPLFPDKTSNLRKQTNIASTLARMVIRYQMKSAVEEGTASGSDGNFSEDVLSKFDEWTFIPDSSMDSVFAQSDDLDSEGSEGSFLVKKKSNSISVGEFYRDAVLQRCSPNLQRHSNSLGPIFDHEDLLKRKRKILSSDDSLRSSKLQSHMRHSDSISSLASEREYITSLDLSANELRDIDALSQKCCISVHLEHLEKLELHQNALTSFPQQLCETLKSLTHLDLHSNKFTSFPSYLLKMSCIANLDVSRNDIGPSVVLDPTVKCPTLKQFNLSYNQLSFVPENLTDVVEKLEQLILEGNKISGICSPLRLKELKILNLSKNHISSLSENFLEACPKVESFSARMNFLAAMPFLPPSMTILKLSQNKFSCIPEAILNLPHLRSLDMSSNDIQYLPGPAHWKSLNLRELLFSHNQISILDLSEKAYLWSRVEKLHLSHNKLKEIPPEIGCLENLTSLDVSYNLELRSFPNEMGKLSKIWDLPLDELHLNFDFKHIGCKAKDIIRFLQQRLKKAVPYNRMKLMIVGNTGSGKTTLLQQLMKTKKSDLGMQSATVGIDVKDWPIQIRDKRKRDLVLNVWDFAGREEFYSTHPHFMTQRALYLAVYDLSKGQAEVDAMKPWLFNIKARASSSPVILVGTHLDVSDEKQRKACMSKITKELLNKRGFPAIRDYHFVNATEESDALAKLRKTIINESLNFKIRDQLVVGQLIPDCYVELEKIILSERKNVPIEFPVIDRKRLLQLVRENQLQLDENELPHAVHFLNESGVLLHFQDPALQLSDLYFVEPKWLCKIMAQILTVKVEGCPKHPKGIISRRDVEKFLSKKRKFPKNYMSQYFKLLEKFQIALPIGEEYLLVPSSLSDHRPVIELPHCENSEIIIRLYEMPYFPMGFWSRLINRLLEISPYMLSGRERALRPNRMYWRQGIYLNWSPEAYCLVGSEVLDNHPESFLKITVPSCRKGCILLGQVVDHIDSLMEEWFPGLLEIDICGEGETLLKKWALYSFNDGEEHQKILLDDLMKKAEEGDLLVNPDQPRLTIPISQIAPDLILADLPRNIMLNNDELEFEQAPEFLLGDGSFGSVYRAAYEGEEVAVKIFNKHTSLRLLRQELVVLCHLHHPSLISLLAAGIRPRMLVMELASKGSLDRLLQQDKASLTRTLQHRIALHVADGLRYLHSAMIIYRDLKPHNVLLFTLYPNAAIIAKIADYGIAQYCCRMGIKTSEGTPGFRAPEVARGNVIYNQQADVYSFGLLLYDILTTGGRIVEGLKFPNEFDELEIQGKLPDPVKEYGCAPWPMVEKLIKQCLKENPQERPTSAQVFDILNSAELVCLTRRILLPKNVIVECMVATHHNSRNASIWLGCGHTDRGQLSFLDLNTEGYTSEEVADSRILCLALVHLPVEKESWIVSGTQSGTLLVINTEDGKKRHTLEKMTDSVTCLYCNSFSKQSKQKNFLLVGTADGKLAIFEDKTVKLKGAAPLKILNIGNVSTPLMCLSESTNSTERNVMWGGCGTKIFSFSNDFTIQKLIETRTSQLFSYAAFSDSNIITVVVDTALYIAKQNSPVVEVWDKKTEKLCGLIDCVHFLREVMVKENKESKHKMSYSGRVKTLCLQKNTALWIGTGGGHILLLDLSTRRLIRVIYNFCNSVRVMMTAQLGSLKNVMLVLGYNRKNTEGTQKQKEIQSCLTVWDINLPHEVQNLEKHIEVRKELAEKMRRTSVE
T1 sequence (Q5S007 whole entry): as above
T2 sequence (Q5S007 whole entry G2019S): as the sequence (Q5S007 whole entry) above, with G2019S counted along it

`C[C@H]1CN(c2cc(-c3n[nH]c4ccc(OC5(C)CC5)cc34)ncn2)CCN1CCOCCOCCOCCOc1ccc2c(c1)C(=O)N(C1CCC(=O)NC1=O)C2=O` (stereo partly drawn) [compound 4, 2-(2,6-dioxopiperidin-3-yl)-5-{2-[2-(2-{2-[(2S)-2-methyl-4-{6-[5-(1-methylcyclopropoxy)-1H-indazol-3-yl]pyrimidin-4-yl}piperazin-1-yl]ethoxy}ethoxy)ethoxy]ethoxy}-2,3-dihydro-1H-isoindole-1,3-dione] was tested, and the Dmax (wildtype LRRK2) was 50 to 70%, the DC50 (wildtype LRRK2) was under 10 nM and the DC50 (G2019S LRRK2) was 10 to 50 nM. For the same compound, the Dmax (G2019S LRRK2) was 50 to 70%, the Dmax [1] was 50 to 70% and the DC50 [1] was under 10 nM.

For `CC(C)Oc1ccc2[nH]nc(-c3cc(N4CCN(CC[C@H]5CCN(CC6CCN(c7ccc8c(c7)C(=O)N(C7CCC(=O)NC7=O)C8=O)CC6)C5)CC4)ncn3)c2c1` (stereo partly drawn) [compound 42, 2-(2,6-dioxopiperidin-3-yl)-5-(4-(((R)-3-(2-(4-(6-(5-isopropoxy-1H-indazol-3-yl)pyrimidin-4-yl)piperazin-1-yl)ethyl)pyrrolidin-1-yl)methyl)piperidin-1-yl)isoindoline-1,3-dione], the Dmax (wildtype LRRK2) was 50 to 70%, the DC50 (wildtype LRRK2) was 10 to 50 nM and the DC50 (G2019S LRRK2) was 10 to 50 nM. It also gave a Dmax (G2019S LRRK2) of 50 to 70%.

`CC(C)Oc1cc2c(-c3ccnc(N4CCN(CCOCCOCCOCCOc5ccc6c(c5)C(=O)N(C5CCC(=O)NC5=O)C6=O)[C@@H](C)C4)c3)n[nH]c2cc1F` (stereo partly drawn) [compound 14, 2-(2,6-dioxopiperidin-3-yl)-5-{2-[2-(2-{2-[(2S)-4-{4-[6-fluoro-5-(propan-2-yloxy)-1H-indazol-3-yl]pyridin-2-yl}-2-methylpiperazin-1-yl]ethoxy}ethoxy)ethoxy]ethoxy}-2,3-dihydro-1H-isoindole-1,3-dione] showed a Dmax (wildtype LRRK2) of at least 70%, a DC50 (wildtype LRRK2) of at least 100 nM and a DC50 (G2019S LRRK2) of at least 100 nM. The Dmax (G2019S LRRK2) was 50 to 70%.

For `CC(C)Oc1ccc2[nH]nc(-c3cc(N4CCO[C@H](CCN5CCN(CC6CCN(c7ccc8c(c7)C(=O)N(C7CCC(=O)NC7=O)C8=O)CC6)CC5)C4)ncn3)c2c1` (stereo partly drawn) [compound 50, 2-(2,6-dioxopiperidin-3-yl)-5-(4-((4-(2-((R)-4-(6-(5-isopropoxy-1H-indazol-3-yl)pyrimidin-4-yl)morpholin-2-yl)ethyl)piperazin-1-yl)methyl)piperidin-1-yl)isoindoline-1,3-dione], the Dmax (wildtype LRRK2) was at least 70%, the DC50 (wildtype LRRK2) was under 10 nM and the DC50 (G2019S LRRK2) was under 10 nM. The Dmax (G2019S LRRK2) was at least 70%.

`CC(C)Oc1ccc2[nH]nc(-c3cc(N4CCN(CCOCCOCCOCCOc5ccc6c(c5)C(=O)N(C5CCC(=O)NC5=O)C6=O)[C@@H](C)C4)ncn3)c2c1` (stereo partly drawn) [compound 9, 2-(2,6-dioxopiperidin-3-yl)-5-{2-[2-(2-{2-[(2S)-2-methyl-4-{6-[5-(propan-2-yloxy)-1H-indazol-3-yl]pyrimidin-4-yl}piperazin-1-yl]ethoxy}ethoxy)ethoxy]ethoxy}-2,3-dihydro-1H-isoindole-1,3-dione] showed a Dmax (wildtype LRRK2) of under 50%, a DC50 (wildtype LRRK2) of at least 100 nM and a DC50 (G2019S LRRK2) of at least 100 nM. The Dmax (G2019S LRRK2) was under 50%.

Work on `CC1(Oc2ccc3[nH]nc(-c4cc(N5CCN(CCN6CCC(CN7CCN(c8ccc9c(c8)C(=O)N(C8CCC(=O)NC8=O)C9=O)CC7)CC6)CC5)ncn4)c3c2)CC1` (stereo not shown) [compound 28, 2-(2,6-dioxopiperidin-3-yl)-5-[4-({1-[2-(4-{6-[5-(1-methylcyclopropoxy)-1H-indazol-3-yl]pyrimidin-4-yl}piperazin-1-yl)ethyl]piperidin-4-yl}methyl)piperazin-1-yl]-2,3-dihydro-1H-isoindole-1,3-dione] yielded a Dmax (wildtype LRRK2) of at least 70%, a DC50 (wildtype LRRK2) of under 10 nM and a DC50 (G2019S LRRK2) of under 10 nM. The Dmax (G2019S LRRK2) was at least 70%.

In the case of `CC(C)Oc1ccc2[nH]nc(-c3cc(N4CCN(CCN5CCC(CC6CCN(c7ccc8c(c7)C(=O)N(C7CCC(=O)NC7=O)C8=O)CC6)CC5)CC4)ncn3)c2c1` (stereo not shown) [compound 51, 2-(2,6-dioxopiperidin-3-yl)-5-(4-((1-(2-(4-(6-(5-isopropoxy-1H-indazol-3-yl)pyrimidin-4-yl)piperazin-1-yl)ethyl)piperidin-4-yl)methyl)piperidin-1-yl)isoindoline-1,3-dione], the Dmax (wildtype LRRK2) is reported as 50 to 70%, the DC50 (wildtype LRRK2) is reported as 10 to 50 nM and the DC50 (G2019S LRRK2) is reported as 10 to 50 nM. It also gave a Dmax (G2019S LRRK2) of 50 to 70%.

For `C[C@H]1CN(c2cc(-c3n[nH]c4ccc(OC5(C)CC5)cc34)ncn2)CCN1CCOC1CCN(CC2CCN(c3ccc4c(c3)C(=O)N(C3CCC(=O)NC3=O)C4=O)CC2)CC1` (stereo partly drawn) [compound 33, 2-(2,6-dioxopiperidin-3-yl)-5-{4-[(4-{2-[(2S)-2-methyl-4-{6-[5-(1-methylcyclopropoxy)-1H-indazol-3-yl]pyrimidin-4-yl}piperazin-1-yl]ethoxy}piperidin-1-yl)methyl]piperidin-1-yl}-2,3-dihydro-1H-isoindole-1,3-dione], the Dmax (wildtype LRRK2) was at least 70%, the DC50 (wildtype LRRK2) was 10 to 50 nM and the DC50 (G2019S LRRK2) was under 10 nM. It also gave a Dmax (G2019S LRRK2) of at least 70%.

In the case of `CC(C)Oc1ccc2[nH]nc(-c3cc(N4CCN(CCN5CC(CN6CCN(c7ccc8c(c7)C(=O)N(C7CCC(=O)NC7=O)C8=O)CC6)C5)CC4)ncn3)c2c1` (stereo not shown) [compound 45, 2-(2,6-dioxopiperidin-3-yl)-5-(4-((1-(2-(4-(6-(5-isopropoxy-1H-indazol-3-yl)pyrimidin-4-yl)piperazin-1-yl)ethyl)azetidin-3-yl)methyl)piperazin-1-yl)isoindoline-1,3-dione], the Dmax (wildtype LRRK2) is reported as under 50%, the DC50 (wildtype LRRK2) is reported as 10 to 50 nM and the DC50 (G2019S LRRK2) is reported as at least 100 nM. It also gave a Dmax (G2019S LRRK2) of under 50%.

Work on `C[C@H]1CN(c2cc(-c3n[nH]c4ccc(OC5(C)CC5)cc34)ncn2)CCN1CCOCCOCCOCCOc1ccc(C(=O)NC2CCC(=O)NC2=O)c(F)c1` (stereo partly drawn) [compound 13, N-(2,6-dioxopiperidin-3-yl)-2-fluoro-4-{2-[2-(2-{2-[(2S)-2-methyl-4-{6-[5-(1-methylcyclopropoxy)-1H-indazol-3-yl]pyrimidin-4-yl}piperazin-1-yl]ethoxy}ethoxy)ethoxy]ethoxy}benzamide] yielded a Dmax (wildtype LRRK2) of under 50%, a DC50 (wildtype LRRK2) of 10 to 50 nM and a DC50 (G2019S LRRK2) of 10 to 50 nM. It also gave a Dmax (G2019S LRRK2) of under 50%.

`CC(C)Oc1ccc2[nH]nc(-c3cc(N4CCN(CCOCCOCCOc5ccc6c(c5)C(=O)N(C5CCC(=O)NC5=O)C6=O)[C@@H](C)C4)ncn3)c2c1` (stereo partly drawn) [compound 8, 2-(2,6-dioxopiperidin-3-yl)-5-[2-(2-{2-[(2S)-2-methyl-4-{6-[5-(propan-2-yloxy)-1H-indazol-3-yl]pyrimidin-4-yl}piperazin-1-yl]ethoxy}ethoxy)ethoxy]-2,3-dihydro-1H-isoindole-1,3-dione] gave a Dmax (wildtype LRRK2) of under 50%, a DC50 (wildtype LRRK2) of at least 100 nM and a DC50 (G2019S LRRK2) of at least 100 nM. For the same compound, the Dmax (G2019S LRRK2) was under 50%.

Work on `C[C@H]1CN(c2cc(-c3n[nH]c4ccc(OC5(C)CC5)cc34)ncn2)CCN1CC1CCN(CC2CCN(c3ccc4c(c3)C(=O)N(C3CCC(=O)NC3=O)C4=O)CC2)CC1` (stereo partly drawn) [compound 24, 2-(2,6-dioxopiperidin-3-yl)-5-{4-[(4-{[(2S)-2-methyl-4-{6-[5-(1-methylcyclopropoxy)-1H-indazol-3-yl]pyrimidin-4-yl}piperazin-1-yl]methyl}piperidin-1-yl)methyl]piperidin-1-yl}-2,3-dihydro-1H-isoindole-1,3-dione] yielded a Dmax (wildtype LRRK2) of 50 to 70%, a DC50 (wildtype LRRK2) of under 10 nM and a DC50 (G2019S LRRK2) of under 10 nM. For the same compound, the Dmax (G2019S LRRK2) was at least 70%, the Dmax [1] was 50 to 70% and the DC50 [1] was under 10 nM.

From patent publication US20250114356A1, “INDAZOLE BASED COMPOUNDS AND ASSOCIATED METHODS OF USE” (Arvinas Operations, Inc., priority 2020, published 2025)
